Assay results from ChEMBL document CHEMBL4725224, “A novel Golgi mannosidase inhibitor: Molecular design, synthesis, enzyme inhibition, and inhibition of spheroid formation” (Bioorg Med Chem, 2020).
Active and inactive are the calls of the source. The calls are words filed in the database; no cut-off is given here.

Tests used:
Assay type in all cases: cell-based
[1] = test system: HeLa; test: Inhibition of Golgi mannosidase in human HeLa cells assessed as high mannose type N-glycans accumulation by measuring reduction in cell length using ConA-AF488 at 10 uM by fluorescence microscopy analysis (reference value: 100%); settings: time day <=7
[2] = test system: HeLa; test: Inhibition of Golgi mannosidase in human HeLa cells assessed as intracellular high mannose type N-glycans accumulation by measuring increase in fluorescence intensity using ConA-AF488 at 10 uM by confocal laser scanning microscopy analysis
[3] = test system: OVCAR-3; test: Inhibition of Golgi mannosidase in human OVCAR-3 cells assessed as inhibition of spheroid formation by measuring size at 10 uM upto 7 days by light microscopy analysis relative to control; settings: time day <=7
[4] = test system: HeLa; test: Inhibition of Golgi mannosidase in human HeLa cells assessed as high mannose type N-glycans accumulation by measuring increase in fluorescence area using ConA-AF488 at 10 uM by fluorescence microscopy analysis (reference value: 100%); settings: values are per cent of control
[5] = test system: HeLa; test: Inhibition of Golgi mannosidase in human HeLa cells assessed as high mannose type N-glycans accumulation by measuring increase in fluorescence intensity using ConA-AF488 at 10 uM by fluorescence microscopy analysis (reference value: 100%); settings: values are per cent of control

Row | SMILES | inhibition [1] [%] | inhibition [2] | inhibition [3] | response, % of control [4] [%] | response, % of control [5] [%]
1 | CN(C)c1ccc(CNCCC(c2ccccc2)c2ccccc2)cc1 | 32 | – | – | – | –
2 | O=C1N[C@@H]2[C@@H](O)[C@@H](O)[C@H](O)[C@@H](CO)N2C1=O | 13 | Active | inactive | – | –
3 | c1ccc(C(CCNCc2ccc3c(c2)OCO3)c2ccccc2)cc1 | 28 | – | – | 113 | 114
4 | COc1ccc(C(CCNCc2ccc(N(C)C)cc2)c2ccc3c(c2)OCO3)cc1 (centres undefined) | 28 | Active | Active | 148 | –
5 | COc1ccc(C(CCNCc2ccc3c(c2)OCO3)c2ccc3c(c2)OCO3)cc1 (centres undefined) | 26 | – | – | 108 | 110
6 | Clc1ccc(CNCCC(c2ccccc2)c2ccccc2)cc1 | 29 | – | – | 127 | 134
7 | COc1ccc(C(CCNCc2ccc(Cl)cc2)c2ccc3c(c2)OCO3)cc1 (centres undefined) | 27 | – | – | 150 | –
8 | c1ccc(CNCCC(c2ccccc2)c2ccc3c(c2)OCO3)cc1 (centres undefined) | 21 | – | – | – | –
9 | CN(C)c1ccc(CNCCC(c2ccccc2)c2ccc3c(c2)OCO3)cc1 (centres undefined) | 23 | – | – | 114 | 114
10 | c1ccc(C(CCNCc2ccc3c(c2)OCO3)c2ccc3c(c2)OCO3)cc1 (centres undefined) | 31 | – | – | 113 | 104
11 | Clc1ccc(CNCCC(c2ccccc2)c2ccc3c(c2)OCO3)cc1 (centres undefined) | 18 | – | – | 115 | 111
